Source: ChEMBL document CHEMBL1201862, “PubChem BioAssay data set” (2004)
The source made the active and inactive calls.

How the values were obtained:
[1] = molecular target: T1, Carboxy-terminal domain RNA polymerase II polypeptide A small phosphatase 1 (Homo sapiens, UniProt Q9GZU7); test: inhibitors of CTDSP1, concentration-response testing, biochemical assay, absorbance-based, actives from ultra-high-throughput screening (AID 540297); type: functional
T1 sequence (Q9GZU7 whole entry): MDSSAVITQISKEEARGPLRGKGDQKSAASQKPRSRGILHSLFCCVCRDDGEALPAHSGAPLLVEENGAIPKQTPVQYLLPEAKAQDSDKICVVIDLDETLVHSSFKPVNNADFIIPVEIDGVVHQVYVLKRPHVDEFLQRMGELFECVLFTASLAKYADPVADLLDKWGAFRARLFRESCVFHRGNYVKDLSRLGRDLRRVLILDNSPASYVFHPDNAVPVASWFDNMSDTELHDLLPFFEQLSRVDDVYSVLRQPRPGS

[2] = microbe, parasite or virus in culture; type: functional; details: Mycobacterium tuberculosis
Large T antigen = Large T antigen (Simian virus 40, UniProt P03070); type: functional, Betapolyomavirus macacae;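 note: Confirmatory-stage PubChem screen for compounds that inhibit SV40 T antigen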
Sequence of Large T antigen (P03070 whole entry): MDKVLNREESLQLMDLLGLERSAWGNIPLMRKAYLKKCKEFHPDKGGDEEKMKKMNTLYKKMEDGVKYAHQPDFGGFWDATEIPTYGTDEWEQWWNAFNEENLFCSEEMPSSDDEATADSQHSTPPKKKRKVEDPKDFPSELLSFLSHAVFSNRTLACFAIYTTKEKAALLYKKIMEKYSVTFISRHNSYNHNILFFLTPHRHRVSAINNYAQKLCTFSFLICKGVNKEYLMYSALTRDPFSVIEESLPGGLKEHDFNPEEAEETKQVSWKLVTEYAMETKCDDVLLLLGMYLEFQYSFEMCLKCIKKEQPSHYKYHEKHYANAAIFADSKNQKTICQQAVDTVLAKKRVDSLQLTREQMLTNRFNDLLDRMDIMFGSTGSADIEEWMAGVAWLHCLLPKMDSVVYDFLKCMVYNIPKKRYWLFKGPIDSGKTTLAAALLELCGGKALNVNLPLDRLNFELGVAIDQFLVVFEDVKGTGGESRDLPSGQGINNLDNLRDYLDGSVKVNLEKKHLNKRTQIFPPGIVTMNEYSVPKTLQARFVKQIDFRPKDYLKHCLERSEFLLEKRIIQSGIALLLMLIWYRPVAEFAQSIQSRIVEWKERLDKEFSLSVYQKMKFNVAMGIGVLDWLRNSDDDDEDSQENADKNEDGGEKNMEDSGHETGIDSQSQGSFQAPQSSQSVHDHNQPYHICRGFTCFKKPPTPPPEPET

Vero = Vero cell cytotoxicity, cytotoxicity control for flavivirus capping enzyme inhibitors (AID 588742); type: functional; details: Chlorocebus sabaeus
Genome polyprotein = Genome polyprotein (dengue virus type 2, UniProt P29990); test: Dengue-2 NS5 methyltransferase inhibitors, primary screen, biochemical, confirmation dose response (AID 588689); type: functional
Sequence of Genome polyprotein (P29990 2492-3391 limits assumed): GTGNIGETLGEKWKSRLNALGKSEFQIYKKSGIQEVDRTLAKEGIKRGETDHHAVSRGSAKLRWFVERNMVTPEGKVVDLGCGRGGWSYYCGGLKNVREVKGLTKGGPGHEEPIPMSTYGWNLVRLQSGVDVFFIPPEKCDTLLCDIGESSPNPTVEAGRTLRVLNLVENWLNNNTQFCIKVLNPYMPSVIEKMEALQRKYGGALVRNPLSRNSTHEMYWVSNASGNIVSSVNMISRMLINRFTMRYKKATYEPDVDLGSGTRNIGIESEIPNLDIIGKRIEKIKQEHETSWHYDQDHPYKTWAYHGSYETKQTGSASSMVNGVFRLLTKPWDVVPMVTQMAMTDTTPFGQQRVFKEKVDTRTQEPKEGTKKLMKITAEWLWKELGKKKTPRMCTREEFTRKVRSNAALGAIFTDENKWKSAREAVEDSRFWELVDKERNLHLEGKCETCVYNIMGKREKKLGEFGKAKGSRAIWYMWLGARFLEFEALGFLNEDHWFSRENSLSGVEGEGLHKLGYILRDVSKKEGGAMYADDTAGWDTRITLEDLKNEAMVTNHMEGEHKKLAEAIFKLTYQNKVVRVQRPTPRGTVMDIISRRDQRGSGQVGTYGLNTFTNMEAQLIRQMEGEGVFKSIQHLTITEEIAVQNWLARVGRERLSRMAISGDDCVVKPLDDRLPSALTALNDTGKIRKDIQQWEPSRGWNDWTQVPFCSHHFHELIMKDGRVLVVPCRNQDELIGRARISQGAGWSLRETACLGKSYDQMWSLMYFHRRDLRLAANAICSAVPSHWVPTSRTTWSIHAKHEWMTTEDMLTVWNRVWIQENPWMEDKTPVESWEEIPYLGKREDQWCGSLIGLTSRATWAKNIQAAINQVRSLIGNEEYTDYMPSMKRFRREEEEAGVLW

[3] = Shn3 3'UTR reporter inhibitors, dose response, cell-based, Clone20 osteoblasts, firefly luciferase, cherry-picked (AID 624132); type: functional;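 note: firefly luciferase luminescence from reporter carrying the Shn3 3'UTR in osteoblasts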
[4] = HepG2 cell cytotoxicity, dose response, cytotoxicity control for Shn3 inhibitor project, CellTiter-Glo, cherry-picked (AID 624134); type: functional, cell-based
[5] = control 3'UTR Renilla luciferase suppression, dose response, counter-screen for Shn3 inhibitor project, cell-based, Clone20-Shn3RL, cherry-picked (AID 624133); type: functional
[6] = molecular target: T2, Histone-lysine N-methyltransferase NSD2 (Homo sapiens, UniProt O96028); type: biochemical
T2 sequence (O96028 whole entry): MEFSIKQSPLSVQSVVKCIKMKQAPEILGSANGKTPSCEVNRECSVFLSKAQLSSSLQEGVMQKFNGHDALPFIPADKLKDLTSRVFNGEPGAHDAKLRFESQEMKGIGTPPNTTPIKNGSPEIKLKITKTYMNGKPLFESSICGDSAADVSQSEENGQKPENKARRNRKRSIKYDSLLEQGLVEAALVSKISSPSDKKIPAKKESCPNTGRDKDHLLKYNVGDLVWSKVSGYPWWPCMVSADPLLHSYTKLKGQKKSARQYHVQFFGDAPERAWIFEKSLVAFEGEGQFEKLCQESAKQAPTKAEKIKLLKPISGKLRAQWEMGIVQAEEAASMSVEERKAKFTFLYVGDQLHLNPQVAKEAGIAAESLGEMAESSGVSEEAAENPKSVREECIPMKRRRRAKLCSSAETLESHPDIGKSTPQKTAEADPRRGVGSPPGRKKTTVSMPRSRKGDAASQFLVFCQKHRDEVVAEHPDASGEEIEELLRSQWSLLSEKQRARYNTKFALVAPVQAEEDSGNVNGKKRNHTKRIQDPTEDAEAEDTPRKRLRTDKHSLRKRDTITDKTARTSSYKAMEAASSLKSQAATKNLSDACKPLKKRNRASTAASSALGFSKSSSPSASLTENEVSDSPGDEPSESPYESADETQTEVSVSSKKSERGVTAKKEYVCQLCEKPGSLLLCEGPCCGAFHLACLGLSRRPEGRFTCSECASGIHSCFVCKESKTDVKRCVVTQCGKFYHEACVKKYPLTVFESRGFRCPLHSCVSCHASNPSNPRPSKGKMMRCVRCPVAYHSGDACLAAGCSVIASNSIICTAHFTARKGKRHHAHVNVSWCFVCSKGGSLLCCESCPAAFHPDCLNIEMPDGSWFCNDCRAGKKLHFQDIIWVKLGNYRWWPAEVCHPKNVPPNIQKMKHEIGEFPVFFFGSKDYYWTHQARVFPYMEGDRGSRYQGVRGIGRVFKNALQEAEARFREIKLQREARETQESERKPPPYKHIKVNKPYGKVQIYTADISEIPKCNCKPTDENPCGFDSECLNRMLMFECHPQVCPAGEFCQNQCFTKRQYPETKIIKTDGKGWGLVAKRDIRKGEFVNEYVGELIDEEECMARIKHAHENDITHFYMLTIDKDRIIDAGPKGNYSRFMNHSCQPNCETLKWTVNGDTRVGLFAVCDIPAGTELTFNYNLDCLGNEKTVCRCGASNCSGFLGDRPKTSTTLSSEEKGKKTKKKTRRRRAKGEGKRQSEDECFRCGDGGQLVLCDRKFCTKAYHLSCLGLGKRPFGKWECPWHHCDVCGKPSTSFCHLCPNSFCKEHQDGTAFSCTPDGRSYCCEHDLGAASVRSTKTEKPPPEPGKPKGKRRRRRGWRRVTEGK

[7] = molecular target: T3, Heat shock factor protein 1 (Mus musculus, UniProt P38532); test: inhibition of MG132-induced HSE-luciferase signal, confirmation, cell-based, NIH3T3, luminescence, dose retest (AID 2382); type: functional;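 note: NIH3T3 fibroblasts with HSF1-driven luciferase reporter stressed by proteasome inhibitor MG132; luminescence from HSF1-driven luciferase expression after 8 hours of MG132 stress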
T3 sequence (P38532 whole entry): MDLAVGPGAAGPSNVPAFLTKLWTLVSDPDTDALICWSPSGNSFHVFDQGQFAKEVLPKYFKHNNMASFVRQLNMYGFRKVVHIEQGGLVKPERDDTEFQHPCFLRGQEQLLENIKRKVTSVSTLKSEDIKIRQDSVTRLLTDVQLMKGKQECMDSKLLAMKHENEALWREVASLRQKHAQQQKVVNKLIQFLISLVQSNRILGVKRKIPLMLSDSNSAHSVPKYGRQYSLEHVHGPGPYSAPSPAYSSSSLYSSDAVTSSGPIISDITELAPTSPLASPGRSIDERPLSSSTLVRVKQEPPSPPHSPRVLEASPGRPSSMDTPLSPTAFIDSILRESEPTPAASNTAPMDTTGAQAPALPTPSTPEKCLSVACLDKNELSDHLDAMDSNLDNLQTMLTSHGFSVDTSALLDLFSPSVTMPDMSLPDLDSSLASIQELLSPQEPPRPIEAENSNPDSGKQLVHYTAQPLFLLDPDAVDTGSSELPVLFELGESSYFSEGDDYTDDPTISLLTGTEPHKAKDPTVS

[8] = molecular target: FAD-linked sulfhydryl oxidase ALR (Homo sapiens, UniProt P55789); test: inhibitors of human ALR sulfhydryl oxidase, dose response, biochemical, H2O2 detection, luminescence, cherry-pick (AID 493248)
Sequence of FAD-linked sulfhydryl oxidase ALR (P55789 whole entry): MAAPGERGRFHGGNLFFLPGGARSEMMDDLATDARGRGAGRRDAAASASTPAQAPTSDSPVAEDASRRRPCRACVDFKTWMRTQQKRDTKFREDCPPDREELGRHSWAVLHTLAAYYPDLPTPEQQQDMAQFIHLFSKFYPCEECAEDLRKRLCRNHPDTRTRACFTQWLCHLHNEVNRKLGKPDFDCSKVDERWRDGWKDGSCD

CC(=O)c1sc(C(=O)O)c(-c2ccco2)c1-c1ccco1
IC50 [1]: 15.5 µM (active)

Cc1ccc(NC(=O)C2CCN(S(=O)(=O)c3ccc4c(c3)NC(=O)C(C)S4)CC2)c(Cl)c1 (stereo not given)
CC50 [2]: > 40 µM (active)

Cc1nn(-c2ccccc2)c2nc(O)c(CNc3ccc(N4CCOCC4)cc3)cc12
IC50 (Large T antigen): 5.01 µM (active)

CCOC(=O)c1c2c(n(-c3ccc(OC)cc3)c1C)C(=O)C(=O)c1ccccc1-2
CC50 (Vero): 2.89 µM (active)
IC50 (Genome polyprotein): 47 µM (active)
AC50 [3]: 3.15 µM (active)
AC50 [4]: 3.74 µM (active)
AC50 [5]: 3 µM (active)

C=CCn1c(=O)/c(=C/c2ccc(Cl)cc2)s/c1=C(/C#N)c1nnc2n1CCCCC2
CC50 [2]: 40 µM (active)

C(=N\c1ccc(Nc2ccccc2)cc1)/c1ccc2ccccc2c1
IC50 (Large T antigen): 8.25 µM (active)

C/C(=N\NC(=O)c1ccccc1O)c1ccc(NC(=O)c2ccccc2)cc1
IC50 [1]: 7.56 µM (active)

O=C(/C=C/c1ccco1)NCC(=O)N/N=C/c1ccc([N+](=O)[O-])cc1
IC50 [1]: 5.25 µM (active)

CCN1CCCCC(=N/O)/C(=N/O)CCCC1
AC50 [6]: > 20 µM (inactive)

COc1ccc(C(=O)Oc2ccc(/C=N/O)cc2)cc1
EC50 [7]: > 195 µM (not active)
AC50 [8]: 0.247 µM (active)
